This assay concerns neuronal protein extravasation. Description: Neuronal protein extravasation in dura after electrical stimulation of the trigeminal ganglion (Evans Blue). Format: in vivo, Harlan Sprague-Dawley rats or guinea pigs. The method, then: Harlan Sprague-Dawley rats (225-325 g) or guinea pigs from Charles River Laboratories (225-325 g) were anesthetized with sodium pentobarbital intraperitoneally (65 mg/kg or 45 mg/kg respectively) and placed in a stereotaxic frame (David Kopf Instruments) with the incisor bar set at - 3.5 mm for rats or -4.0 mm for guinea pigs. Following a midline sagital scalp incision, two pairs of bilateral holes were drilled through the skull (6 mm posteriorly, 2.0 and 4.0 mm laterally in rats; 4 mm posteriorly and 3.2 and 5.2 mm laterally in guinea pigs, all coordinates referenced to bregma). Pairs of stainless steel stimulating electrodes (Rhodes Medical Systems, Inc.) were lowered through the holes in both hemispheres to a depth of 9 mm (rats) or 10.5 mm (guinea pigs) from dura.
The femoral vein was exposed and a dose of the test compound was injected intravenously (1 mL/kg). […]
A fluorescence microscope (Zeiss) equipped with a grating monochromator and a spectrophotometer was used to quantify the amount of Evans Blue dye in each sample. An excitation wavelength of approximately 535 nm was utilized and the emission intensity at 600 nm was determined. […] This facilitated the computer-controlled movement of the stage with fluorescence measurements at 25 points (500 µm steps) on each dural sample. The mean and standard deviation of the measurements was determined by the computer. […]

Each structure is given as a SMILES string.

Consider `O=C(O)C(=O)O.Oc1ccc2[nH]cc(C3CCNCC3)c2c1` [Compound III, 5-hydroxy-3-(4-piperidinyl)-1H-indole oxalate], for which the “Inhibition of Protein Extravasation i.v. ID50” value (i.v., 10 minutes before stimulation of the trigeminal ganglion, species (rat or guinea pig) not given, ID50 approximated from dose-response curve) amounted to 8.9e-09 mmol/kg. In the case of `CCN(CC)C1CCc2cccc(Cl)c2C1.Cl` (centres unmarked) [Compound IV, 8-chloro-2-diethylamino-1,2,3,4-tetrahydronaphthalene hydrochloride], for the setting “iv”, the “Inhibition of Protein Extravasation i.v. ID50 (mMol/kg)” value is reported as 1.2x10-^7 mMol/kg.

These data come from EP0929299B1, “SUBSTITUTED 1,2,3,4-TETRAHYDRO-2-DIBENZOFURANAMINES AND 2-AMINOCYCLOHEPTA(b)BENZOFURANS” (ELI LILLY AND COMPANY, priority 1996, dated 1998).
